From the NIST ThermoML archive (doi:10.1016/j.jct.2019.05.013)

Legend:
[1] = refractive index (Na D-line) (dimensionless); details: 293.15 K; 101.33 kPa; Liquid; Standard Abbe refractometry
[2] = wn = mass fraction of the nth substance listed; details: 100 kPa, Liquid; for viscosity: Falling or rolling sphere viscometry; for mass density: Vibrating tube method

CO [methanol]
Details | refractive index
[1] | 1.32858

CO [methanol] + O
[2]
Details | mass density, w1 = 0.1 [kg/m3] | mass density, w1 = 0.2 [kg/m3] | mass density, w1 = 0.3001 [kg/m3] | mass density, w1 = 0.4 [kg/m3] | mass density, w1 = 0.4999 [kg/m3] | viscosity, w1 = 0.1 [mPa·s] | viscosity, w1 = 0.2 [mPa·s] | viscosity, w1 = 0.3001 [mPa·s] | viscosity, w1 = 0.4 [mPa·s] | viscosity, w1 = 0.4999 [mPa·s]
273.15 K | 984.19 | 972.46 | 960.61 | 945.89 | 928.63 | 2.575 | 3.315 | 3.636 | 3.623 | 3.312
293.15 K | 981.29 | 966.62 | 951.49 | 934.6 | 915.53 | 1.316 | 1.623 | 1.782 | 1.824 | 1.747

O [water] + CO
[2], w2 = 0
Details | mass density [kg/m3] | viscosity [mPa·s]
275.15 K | 999.94 | 1.661
293.15 K | – | 0.998
